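Test compounds were applied to cells in 96-well plates for 48 hours at 5 doses. GI50 = concentration required for 50% inhibition of growth. TGI marks complete inhibition of growth.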
What was measured:
Assay in all cases: NCI-60 cell line screen, 48 h
COLO 205 colon = test system: COLO 205 colon
SNB-19 CNS = test system: SNB-19 CNS
A549 NSCLC = test system: A549 NSCLC
MDA-MB-435 = test system: MDA-MB-435
A498 renal = test system: A498 renal
HCC-2998 colon = test system: HCC-2998 colon
NCI-H226 lung = test system: NCI-H226 lung
HT29 colon = test system: HT29 colon
SR leukemia = test system: SR leukemia
SW-620 colon = test system: SW-620 colon
UACC-62 melanoma = test system: UACC-62 melanoma
SF-539 CNS = test system: SF-539 CNS
NCI-H23 lung = test system: NCI-H23 lung
M14 melanoma = test system: M14 melanoma
NCI-H522 lung = test system: NCI-H522 lung
KM12 colon = test system: KM12 colon
UO-31 renal = test system: UO-31 renal
CAKI-1 renal = test system: CAKI-1 renal
RPMI-8226 leukemia = test system: RPMI-8226 leukemia
SN12C renal = test system: SN12C renal
EKVX NSCLC = test system: EKVX NSCLC
HCT-15 colon = test system: HCT-15 colon
UACC-257 melanoma = test system: UACC-257 melanoma
OVCAR-5 ovarian = test system: OVCAR-5 ovarian
MCF7 breast = test system: MCF7 breast
K-562 leukemia = test system: K-562 leukemia
OVCAR-3 ovarian = test system: OVCAR-3 ovarian
HS 578T breast = test system: HS 578T breast
786-0 renal = test system: 786-0 renal
T-47D breast = test system: T-47D breast
CCRF-CEM leukemia = test system: CCRF-CEM leukemia
U251 CNS = test system: U251 CNS
HCT-116 colon = test system: HCT-116 colon
IGROV1 ovarian = test system: IGROV1 ovarian
TK-10 renal = test system: TK-10 renal
SF-295 CNS = test system: SF-295 CNS
MOLT-4 leukemia = test system: MOLT-4 leukemia
MDA-MB-231 breast = test system: MDA-MB-231 breast
MALME-3M melanoma = test system: MALME-3M melanoma
DU-145 prostate = test system: DU-145 prostate
LOX IMVI melanoma = test system: LOX IMVI melanoma
SK-MEL-28 melanoma = test system: SK-MEL-28 melanoma
BT-549 breast = test system: BT-549 breast
NCI-H460 lung = test system: NCI-H460 lung
ACHN renal = test system: ACHN renal
NCI/ADR-RES ovarian = test system: NCI/ADR-RES ovarian
OVCAR-8 ovarian = test system: OVCAR-8 ovarian
RXF 393 renal = test system: RXF 393 renal
PC-3 prostate = test system: PC-3 prostate
SK-MEL-5 melanoma = test system: SK-MEL-5 melanoma
SNB-75 CNS = test system: SNB-75 CNS
SF-268 CNS = test system: SF-268 CNS
SK-OV-3 ovarian = test system: SK-OV-3 ovarian
HOP-62 NSCLC = test system: HOP-62 NSCLC
HL-60(TB) leukemia = test system: HL-60(TB) leukemia
SK-MEL-2 melanoma = test system: SK-MEL-2 melanoma
OVCAR-4 ovarian = test system: OVCAR-4 ovarian

With `COc1ccc(/C=C/C(=O)c2c(O)c(C)c(O)c3c2OC2=CC(O)=C(C(C)=O)C(=O)[C@]23C)cc1` the GI50 (COLO 205 colon) was 1930 nM, the TGI (COLO 205 colon) was 4540 nM and the GI50 (SNB-19 CNS) was 1560 nM. For the same compound, the TGI (SNB-19 CNS) was 7800 nM, the GI50 (A549 NSCLC) was 1330 nM and the TGI (A549 NSCLC) was 7260 nM. It also gave a GI50 (MDA-MB-435) of 1920 nM, a TGI (MDA-MB-435) of 4110 nM and a GI50 (A498 renal) of 770 nM. It also gave a TGI (A498 renal) of 2980 nM, a GI50 (HCC-2998 colon) of 1960 nM and a TGI (HCC-2998 colon) of 5120 nM. It also gave a GI50 (NCI-H226 lung) of 2610 nM, a TGI (NCI-H226 lung) of 6750 nM and a GI50 (HT29 colon) of 860 nM. It also gave a TGI (HT29 colon) of 4330 nM, a GI50 (SR leukemia) of 1170 nM and a TGI (SR leukemia) greater than 17500 nM. It also gave a GI50 (SW-620 colon) of 659 nM, a TGI (SW-620 colon) of 3790 nM and a GI50 (UACC-62 melanoma) of 891 nM. It also gave a TGI (UACC-62 melanoma) of 3480 nM, a GI50 (SF-539 CNS) of 2710 nM and a TGI (SF-539 CNS) of 6440 nM. It also gave a GI50 (NCI-H23 lung) of 598 nM, a TGI (NCI-H23 lung) of 3130 nM and a GI50 (M14 melanoma) of 925 nM. The TGI (M14 melanoma) was 4820 nM, the GI50 (NCI-H522 lung) was 511 nM and the TGI (NCI-H522 lung) was 2330 nM. For the same compound, the GI50 (KM12 colon) was 1040 nM, the TGI (KM12 colon) was 5900 nM and the GI50 (UO-31 renal) was 3450 nM. For the same compound, the TGI (UO-31 renal) was 10600 nM, the GI50 (CAKI-1 renal) was 694 nM and the TGI (CAKI-1 renal) was 8190 nM. For the same compound, the GI50 (RPMI-8226 leukemia) was 596 nM, the TGI (RPMI-8226 leukemia) was 1880 nM and the GI50 (SN12C renal) was 603 nM. For the same compound, the TGI (SN12C renal) was 2480 nM, the GI50 (EKVX NSCLC) was 676 nM and the TGI (EKVX NSCLC) was 5320 nM. For the same compound, the GI50 (HCT-15 colon) was 706 nM, the TGI (HCT-15 colon) was 3480 nM and the GI50 (UACC-257 melanoma) was 3110 nM. The TGI (UACC-257 melanoma) was 10000 nM, the GI50 (OVCAR-5 ovarian) was 4200 nM and the TGI (OVCAR-5 ovarian) was greater than 17500 nM. The GI50 (MCF7 breast) was 610 nM, the TGI (MCF7 breast) was 3800 nM and the GI50 (K-562 leukemia) was 627 nM. For the same compound, the TGI (K-562 leukemia) was greater than 17500 nM, the GI50 (OVCAR-3 ovarian) was 649 nM and the TGI (OVCAR-3 ovarian) was 2830 nM. It also gave a GI50 (HS 578T breast) of 2900 nM, a TGI (HS 578T breast) of 8760 nM and a GI50 (786-0 renal) of 2440 nM. The TGI (786-0 renal) was 7590 nM, the GI50 (T-47D breast) was 521 nM and the TGI (T-47D breast) was 2660 nM. It also gave a GI50 (CCRF-CEM leukemia) of 702 nM, a TGI (CCRF-CEM leukemia) of 9970 nM and a GI50 (U251 CNS) of 801 nM. The TGI (U251 CNS) was 4210 nM, the GI50 (HCT-116 colon) was 610 nM and the TGI (HCT-116 colon) was 2490 nM. For the same compound, the GI50 (IGROV1 ovarian) was 932 nM, the TGI (IGROV1 ovarian) was 8020 nM and the GI50 (TK-10 renal) was 597 nM. The TGI (TK-10 renal) was 5100 nM, the GI50 (SF-295 CNS) was 821 nM and the TGI (SF-295 CNS) was 5110 nM. It also gave a GI50 (MOLT-4 leukemia) of 698 nM, a TGI (MOLT-4 leukemia) greater than 17500 nM and a GI50 (MDA-MB-231 breast) of 1040 nM. For the same compound, the TGI (MDA-MB-231 breast) was 5660 nM, the GI50 (MALME-3M melanoma) was 2230 nM and the TGI (MALME-3M melanoma) was 5220 nM. The GI50 (DU-145 prostate) was 1230 nM, the TGI (DU-145 prostate) was 7840 nM and the GI50 (LOX IMVI melanoma) was 1800 nM. For the same compound, the TGI (LOX IMVI melanoma) was 4570 nM, the GI50 (SK-MEL-28 melanoma) was 1150 nM and the TGI (SK-MEL-28 melanoma) was 4720 nM. It also gave a GI50 (BT-549 breast) of 931 nM, a TGI (BT-549 breast) of 5260 nM and a GI50 (NCI-H460 lung) of 898 nM. It also gave a TGI (NCI-H460 lung) of 3710 nM, a GI50 (ACHN renal) of 1030 nM and a TGI (ACHN renal) of 10400 nM. The GI50 (NCI/ADR-RES ovarian) was 956 nM, the TGI (NCI/ADR-RES ovarian) was 4580 nM and the GI50 (OVCAR-8 ovarian) was 631 nM. It also gave a TGI (OVCAR-8 ovarian) of 2350 nM, a GI50 (RXF 393 renal) of 1960 nM and a TGI (RXF 393 renal) of 4990 nM. For the same compound, the GI50 (PC-3 prostate) was 611 nM, the TGI (PC-3 prostate) was 2340 nM and the GI50 (SK-MEL-5 melanoma) was 1290 nM. For the same compound, the TGI (SK-MEL-5 melanoma) was 3610 nM, the GI50 (SNB-75 CNS) was 2800 nM and the TGI (SNB-75 CNS) was 5950 nM. For the same compound, the GI50 (SF-268 CNS) was 871 nM, the TGI (SF-268 CNS) was 4720 nM and the GI50 (SK-OV-3 ovarian) was 1790 nM. For the same compound, the TGI (SK-OV-3 ovarian) was 7050 nM, the GI50 (HOP-62 NSCLC) was 1920 nM and the TGI (HOP-62 NSCLC) was 6130 nM. For the same compound, the GI50 (HL-60(TB) leukemia) was 603 nM, the TGI (HL-60(TB) leukemia) was 5850 nM and the GI50 (SK-MEL-2 melanoma) was 961 nM. The TGI (SK-MEL-2 melanoma) was 3720 nM, the GI50 (OVCAR-4 ovarian) was 2210 nM and the TGI (OVCAR-4 ovarian) was 10000 nM.

— PubChem BioAssay (NCI)
